Test results published in patent US6774139B1, “Dual function microbicides” (Parker Hughes Institute, priority 2000, dated 2004).
Like-named read-outs stand apart in the source and are kept apart here.

Assays:
[1] = tested on: HIV-1 strain HTLVIIIB; experiment: p24 antigen production in HIV-1 infected PBMCs; type: cell-based
Procedure: The HTLVIIIB strain of HIV-1 was propagated in CCRF-CEM cells and the virus stocks obtained from cell-free supernatants of infected cells were titered using MT-2 cells. Cell-free supernatants were harvested and frozen in 1 ml aliquots at −70° C.
Stock solutions (10 mM) of thiourea compounds were prepared in dimethylsulfoxide (DMSO). Cells were cultured for 7 days in 96-well microtiter plates (100 μl/well; 2×10^6 cells/ml, triplicate wells) in the presence and absence of various concentrations (0.001 μM to 100 μM) of the thioureas. Cells from non-infected controls were handled in the same way except the virus was omitted from the preparation. Aliquots of culture supernatants were removed from the wells on the 7th day after infection for p24 antigen as previously described. The p24 enzyme immunoassay was the unmodified kinetic assay available commercially (Coulter Corporation/Immunotech, Inc., Westbrook, Me.). The assay uses a murine monoclonal antibody (mAb) to the HIV core protein coated onto microwell strips to which the antigen present in the test culture supernatant sample binds. The plates were read on a ELISA reader (Molecular Devices, Sunnyvale, Calif.) at 650 nm and p24 levels, expressed as ng/ml, were calculated against known standards supplied by Coulter/Imrunotech, Inc. Percent viral inhibition was calculated by comparing the p24 values for the test substance-treated infected cells with the p24 values for untreated infected cells (i.e., virus controls). […]

[2] = tested on: human sperm; experiment: sperm immobilizing activity (SIA) by CASA; type: cell-based; conditions: for EC50: read-out: EC50 [SIA]
Procedure: To evaluate the effect of each of the 31 thiourea compounds on human sperm motility and kinematics, highly motile fractions of sperm were prepared from donor semen (n=8) by discontinuous (90-45%) gradient centrifugation using Enhance Plus medium (Conception Technologies, San Diego, Calif.) and the “swim-up” method. The swim-up method was used after density gradient centrifugation, washing, and resuspension of sperm in BWW-3% BSA. Pooled swim-up fraction was washed once prior to spermicidal assay.
All donor semen specimens were obtained after informed consent and in compliance with the guidelines of the Parker Hughes Institute Institutional Review Board. […] The stock solutions of thioureas were prepared in DMSO (100 mM) and diluted in assay medium to yield the desired concentrations (up to 1000 μM). Corresponding volume of DMSO (either 0.5% or 1%) was added to control tubes. After 3 hours of incubation at 37° C., the percentage of motile sperm was evaluated by CASA [53, 62-64]. The percent motilities were compared with sham-treated control suspensions of motile sperm.
For CASA, 5-μl of each sperm suspension was loaded into a 20-μm Microcell slide (Conception Technologies) in a counting chamber at 37° C. At least 5-8 fields per slide were scanned for analysis using a Hamilton Thome Integrated Visual Optical System (IVOS), version 10 instrument (Hamilton Thome Research Inc., Danvers, Mass.). Each field was recorded for 30 seconds. The computer calibrations were set at 30 frames at a frame rate of 30/second.
The sperm kinematics parameters that were determined included numbers of motile (MOT) and progressively (PRG) motile sperm; curvilinear velocity (VCL; a measure of the total distance traveled by a given sperm during the acquisition divided by the time elapsed); average path velocity (VAP; the spatially averaged path that eliminates the wobble of the sperm head), straight line velocity (VSL; the straight-line distance from beginning to end of track divided by time taken), beat cross frequency (BCF; frequency of sperm head crossing sperm average path), the amplitude of lateral head displacement (ALH; the mean width of sperm head oscillation), and the derivatives, straightness (STR=VSL/VAP×100) and linearity (LIN=VSL/VCL×100; departure of sperm track from a straight line). Data from each individual cell track were recorded and analyzed. At least 200 motile sperm were analyzed for each aliquot sampled.

[3] = molecular target: T1, purified recombinant HIV-1 RT (Human immunodeficiency virus type 1 group M subtype B, UniProt P03366); experiment: cell-free Quan-T-RT RT inhibition assay (scintillation proximity); type: biochemical; conditions: for IC50: purified recombinant HIV-1 RT, cell-free
T1 construct: purified recombinant HIV-1 RT
Procedure: Each of the thirty one thiourea compounds was tested for RT inhibitory activity against purified recombinant HIV-1 RT using the cell-free Quan-T-RT system (Amersham Corp., Arlington Heights, Ill.), which utilizes the scintillation proximity assay principle.

[4] = partition coefficient n-octanol/water (Pa); type: physicochemical; conditions: UV absorption
Procedure: Partition of the test compounds between n-octanol and water as a measure of their lipophilicity was determined by taking the UV absorption of each compound in n-octanol, water-saturated n- octanol (1:1), and n-octanol-saturated water (1:1). The UV absorption maxima were determined by selecting a wavelength with the maximum absorption peak in the water-saturated octanol layer and the corresponding peak in the octanol-saturated water. Three absorption spectra were obtained for each compound. The partion coefficient (Pa) was calculated as the ratio of the compound concentration present in the lipid phase to the compound concentration present in the aqueous phase.

[5] = Human immunodeficiency virus 1, PBMC, HIV-1 HTLVIIIB infected human PBMC, p24 antigen on 7th day, read-out: IC50 [p24]
[6] = Human immunodeficiency virus 1, PBMC, HIV-1 HTLVIIIB infected human PBMC, values in nM, read-out: IC50[p24]
[7] = motile human sperm, 3 hours at 37° C., CASA
[8] = Human immunodeficiency virus 1, PBMC, read-out: IC50 [p24]

SMILES | IC50 [1, 5] [nM] | IC50 [1, 6] [nM] | EC50 [2, 7] [µM] | IC50 ([3]; IC50 [rRT]) [µM] | Pa, Partition coefficient [4] | other results
S=C(NCCN1CCCCC1)Nc1ccc(Br)cn1 [HI 172] | < 1 | < 1 | > 500 | 5.8 | 8.91 | 
S=C(NCCN1CCCC1)Nc1ccc(Br)cn1 [HI 230] | 1000 |  | > 500 | > 100 | 7.91 | 
COc1ccc(CCNC(=S)Nc2ccc(Br)cn2)cc1OC [HI 232] |  |  | > 500 | > 100 | 22.7 | 
COc1ccc(OC)c(CCNC(=S)Nc2ccc(Br)cn2)c1 [HI 236] | < 1 | < 1 | > 500 | 0.1 | 1.78 | 
COc1ccccc1CCNC(=S)Nc1ccc(Br)cn1 [HI 237] | 10 |  | > 500 | 1 | 3.79 | 
COc1cccc(CCNC(=S)Nc2ccc(Br)cn2)c1 [HI 239] | 3 | 1 to 10 | > 500 | 0.4 | 1.07 | 
Fc1cccc(CCNC(=S)Nc2ccc(Br)cn2)c1 [HI 241] | < 1 | < 1 | > 500 | 0.7 |  | 
Fc1ccc(CCNC(=S)Nc2ccc(Br)cn2)cc1 [HI 242] | 9 | 1 to 10 | > 500 | 6.4 | 10.7 | 
S=C(NCCc1ccc(Br)cc1)Nc1ccc(Br)cn1 [HI 243] | 70 |  | > 500 | 0.9 | 4.16 | 
Cc1ccc(CCNC(=S)Nc2ccc(Br)cn2)cc1 [HI 244] | 30 |  | > 500 | 0.7 | 1.49 | 
S=C(NCCc1cccc(Cl)c1)Nc1ccc(Br)cn1 [HI 254] | 10 |  | > 500 | 3.1 | 6.20 | 
S=C(NCCc1ccc(Cl)cc1)Nc1ccc(Br)cn1 [HI 255] | 1 | 1 to 10 | 160 | 0.4 to 6.4 | 2.23 | 
Oc1ccc(CCNC(=S)Nc2ccc(Br)cn2)cc1 [HI 256, N-[2-(4-hydroxyphenethyl)]-N′-[2-(5-bromopyridyl)]thiourea] |  |  | 233 ± 68 |  | 2.93 | IC50 [1, 8]: 3060 nM
S=C(NCCN1CCNCC1)Nc1ccc(Br)cn1 [HI 258] | 2 | 2 | > 500 | > 100 | 5.92 | 
S=C(NCCc1ccccc1)Nc1ccc(Br)cn1 [HI 275] | 4 | 4 | 361 ± 31 | 1.25 | 3.50 | 
FC(F)(F)c1ccc(NC(=S)NCCc2ccccc2)nc1 [HI 308, N-[2-(phenethyl)]-N′-[2-(5-trifluoromethylpyridinyl)]-thiourea] |  |  | > 500 | > 100 |  | anti-HIV activity (in words) [3]: inactive
FC(F)(F)c1ccc(NC(=S)NCCc2ccccn2)nc1 [HI 309] |  |  | > 500 | 13.9 | 3.81 | 
COc1ccc(OC)c(CCNC(=S)Nc2ccc(C(F)(F)F)cn2)c1 [HI 310, N-[2-(5-dimethoxyphenethyl)]-N′-[2-(5-trifluoromethylpyridinyl)]-thiourea] |  |  | 276 ± 22 |  | 1.00 | IC50 ([1]; HIV-1 HTLVIIIB infected human PBMC, p24 antigen on 7th day, read-out: IC50 [p24]): 80 nM; IC50 ([3]; read-out: IC50 [rRT]): 2 µM
Fc1ccccc1CCNC(=S)Nc1ccc(C(F)(F)F)cn1 [HI 311] | 90 |  | > 500 | 0.6 | 5.13 | 
FC(F)(F)c1ccc(NC(=S)NCCN2CCCCC2)nc1 [HI 344] |  |  | 131 | > 100 | 10.27 | 
Fc1cccc(CCNC(=S)Nc2ccc(Br)cn2)c1 [HI 345] |  |  | > 500 |  | 1.51 | IC50 ([3]; read-out: IC50 [rRT]): 0.7 µM
FC(F)(F)c1ccc(NC(=S)NCCC2=CCCCC2)nc1 [HI 347, N-[2-(5-trifluoromethylpyridinyl)]-N′-[2-(1-cyclohexenyl)ethyl]-thiourea] |  |  | 131 ± 4 |  | 11.5 | IC50 [1, 8]: 79 nM; anti-HIV activity, fold less active than halo functionalized derivatives ([1]; versus PHI-346 and PHI-445): 26 fold; effective 100% inhibitory concentration (EC100), sperm motility ([2]; FIG. 1, CASA): 0.25 mM; SIA, fold less active than halo functionalized derivatives ([2]; versus PHI-346 and PHI-445): two to three-fold less active
S=C(NCCc1cccs1)Nc1ccc(Br)cn1 [HI 443] |  |  | > 500 | 5.3 |  | IC50 [1, 8]: 30 nM
CC1(C)C2CCC(CNC(=S)Nc3ccc(Br)cn3)C1C2 (stereo not drawn) [HI 444] |  |  | > 500 |  | 2.1 | anti-HIV activity (in words) [3]: loss of anti-HIV activity; IC50 ([3]; read-out: IC50 [rRT]): > 100 µM
S=C(NCCC1=CCCCC1)Nc1ccccn1 [HI-541] | 10 |  | > 500 | 5.3 |  | 
S=C(NCCc1ccccn1)Nc1ccc(Br)cn1 [Trovirdine, reference compound] |  |  |  |  | 5.3 | IC50 [1, 8]: 7 nM; SIA / sperm motility (in words) [2]: lacked SIA; EC50 ([2]; Homo sapiens, Sperm, 3 h): > 500 µM
